ChEMBL document CHEMBL1201862, “PubChem BioAssay data set” (2004)
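1) Cells in 96-well plates. 2) Compound, 48 h, 5 concentrations. 3) Linear interpolation between surrounding doses. 4) Unreached endpoint = highest concentration. GI50 marks 50% less growth.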 Activity calls are given as the source filed them. No stated cut-off is given here; in the data, active = GI50 up to about 1.1 µM and inactive = higher.

Key:
Assay in all cases: NCI anticancer screen, dose series, 48 h
BT-549 = tested on: BT-549
SNB-19 = tested on: SNB-19
HT-29 = tested on: HT-29
UACC-62 = tested on: UACC-62
NCI-H226 = tested on: NCI-H226
A498 = tested on: A498
CAKI-1 = tested on: CAKI-1
DU-145 = tested on: DU-145
RXF 393 = tested on: RXF 393
OVCAR-5 = tested on: OVCAR-5
TK-10 = tested on: TK-10
HL-60 = tested on: HL-60
SK-OV-3 = tested on: SK-OV-3
MOLT-4 = tested on: MOLT-4
KM12 = tested on: KM12
MDA-N = tested on: MDA-N
786-0 = tested on: 786-0
SF-268 = tested on: SF-268
SK-MEL-5 = tested on: SK-MEL-5
UACC-257 = tested on: UACC-257

| Compound | GI50 (BT-549) | GI50 (SNB-19) | GI50 (HT-29) | GI50 (UACC-62) | GI50 (NCI-H226) | GI50 (A498) | GI50 (CAKI-1) | GI50 (DU-145) | GI50 (RXF 393) | GI50 (OVCAR-5) | GI50 (TK-10) | GI50 (HL-60) | GI50 (SK-OV-3) | GI50 (MOLT-4) | GI50 (KM12) | GI50 (MDA-N) | GI50 (786-0) | GI50 (SF-268) | GI50 (SK-MEL-5) | GI50 (UACC-257) |
| --- | --- | --- | --- | --- | --- | --- | --- | --- | --- | --- | --- | --- | --- | --- | --- | --- | --- | --- | --- | --- |
| C[C@]12CC[C@H]3[C@@H](CC[C@]4(O)C[C@@H](O)CC[C@]34/C=N/O)[C@@]1(O)CC[C@@H]2C1=COC(=O)C1 | 0.0675 µM (active) | 0.673 µM (active) | 0.146 µM (active) | 0.303 µM (active) | 0.391 µM (active) | 0.0929 µM (active) | 0.0363 µM (active) | 0.0637 µM (active) | 0.0318 µM (active) | 0.318 µM (active) | 0.0845 µM (active) | 0.131 µM (active) | 0.0436 µM (active) | 0.0272 µM (active) | 0.318 µM (active) | 0.191 µM (active) | 0.102 µM (active) | 0.0728 µM (active) | 0.0583 µM (active) | 0.299 µM (active) |
| CCCCCCCCCCCC[C@H](O)[C@H]1CC[C@H]([C@H](O)CCCC[C@H](O)CCCCC[C@@H](O)CC2=C[C@H](C)OC2=O)O1 | 0.0026 µM (active) | 1.13 µM (inactive) | 2.82 µM (inactive) | 1.19 µM (inactive) | 2.84 µM (inactive) | 4.58 µM (inactive) | 6.24 µM (inactive) | 9.42 µM (inactive) | 16.6 µM (inactive) | 17.7 µM (inactive) | 1.77 µM (inactive) | 2.15 µM (inactive) |  | 2.87 µM (inactive) | 3.51 µM (inactive) | 2.37 µM (inactive) | 5.01 µM (inactive) | 3.33 µM (inactive) | 1.75 µM (inactive) | 0.407 µM (active) |
| CCN(CC)CCC(=O)c1ccc(Oc2ccc(Cl)cc2)cc1 | 17 µM (inactive) | 30 µM (inactive) | 21.2 µM (inactive) | 18.6 µM (inactive) |  | 16.1 µM (inactive) | 23.3 µM (inactive) | 21.6 µM (inactive) | 22.3 µM (inactive) | 16.2 µM (inactive) | 18.3 µM (inactive) | 21.1 µM (inactive) |  | 20.4 µM (inactive) | 14.4 µM (inactive) | 16.1 µM (inactive) | 14.9 µM (inactive) | 16.7 µM (inactive) | 17.5 µM (inactive) | 14 µM (inactive) |
| COC(=O)C1=C(C(=O)OC)C2CCC1CC2=O (centres undefined) | > 100 µM (inactive) | > 100 µM (inactive) | > 100 µM (inactive) | > 100 µM (inactive) | > 100 µM (inactive) | > 100 µM (inactive) | > 100 µM (inactive) | > 100 µM (inactive) | > 100 µM (inactive) | > 100 µM (inactive) | > 100 µM (inactive) |  | > 100 µM (inactive) | 45.5 µM (inactive) | 65.6 µM (inactive) | > 100 µM (inactive) | > 100 µM (inactive) | > 100 µM (inactive) | > 100 µM (inactive) | > 100 µM (inactive) |
| Cc1c[nH]c2c(O)cc3c(c12)[C@H](CCl)CN3C(=O)c1cc2cc(NC(=O)Nc3ccc4[nH]c(C(=O)N5C[C@@H](CCl)c6c5cc(O)c5[nH]cc(C)c65)cc4c3)ccc2[nH]1 [BIZELESIN] | 24.9 µM (inactive) | 28.5 µM (inactive) | 27.1 µM (inactive) | 0.701 µM (active) | 0.183 µM (active) | 0.904 µM (active) | 9.16 µM (inactive) | 3.65 µM (inactive) | > 100 µM (inactive) | 0.00136 µM (active) |  | 0.00288 µM (active) | 0.141 µM (active) | 0.418 µM (active) | 12.1 µM (inactive) | 22.2 µM (inactive) | 4.9 µM (inactive) | 2.82 µM (inactive) | 12.5 µM (inactive) | 14.6 µM (inactive) |
| Cc1c([C@H](C)[C@@H]2NC[C@@H](C)C[C@H]2O)ccc2c1C[C@H]1[C@H]2CC=C2C[C@@H](O)CC[C@@]21C [VERATRAMINE] | 21.1 µM (inactive) | 27.8 µM (inactive) | 13.7 µM (inactive) | 13 µM (inactive) | 11.9 µM (inactive) | 15.2 µM (inactive) | 26.6 µM (inactive) | 27.6 µM (inactive) | 17.5 µM (inactive) | 17.8 µM (inactive) | 24.4 µM (inactive) |  | 23.8 µM (inactive) | 13.1 µM (inactive) | 14.5 µM (inactive) | 15.7 µM (inactive) | 17 µM (inactive) | 27.7 µM (inactive) | 10.8 µM (inactive) | 13.2 µM (inactive) |
